Test results published in patent US20170029388A1, “Treatment of Neurodegenerative Diseases with Asparagine Endopeptidase (AEP) Inhibitors and Compositions Related Thereto” (INTERCONTINENTAL GREAT BRANDS LLC, priority 2014, published 2017).

How the values were obtained:
[1] = target: T1, CYP1A2 (Homo sapiens, UniProt P05177); test: CYP inhibition screening, CYP1A2; format: in vitro ADME
T1 sequence (P05177 1-516): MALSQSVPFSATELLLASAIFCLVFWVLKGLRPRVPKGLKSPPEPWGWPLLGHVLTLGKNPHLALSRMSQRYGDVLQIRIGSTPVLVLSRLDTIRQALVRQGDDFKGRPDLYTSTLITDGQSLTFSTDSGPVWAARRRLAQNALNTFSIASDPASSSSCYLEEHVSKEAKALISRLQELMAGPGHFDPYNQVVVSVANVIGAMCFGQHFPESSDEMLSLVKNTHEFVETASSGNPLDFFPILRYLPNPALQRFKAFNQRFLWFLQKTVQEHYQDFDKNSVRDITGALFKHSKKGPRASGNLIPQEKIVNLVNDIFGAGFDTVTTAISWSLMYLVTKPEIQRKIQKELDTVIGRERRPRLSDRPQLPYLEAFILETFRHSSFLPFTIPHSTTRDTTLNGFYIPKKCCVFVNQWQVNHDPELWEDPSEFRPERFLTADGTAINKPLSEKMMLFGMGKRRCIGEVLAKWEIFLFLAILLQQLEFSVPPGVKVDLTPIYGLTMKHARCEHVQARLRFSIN

[2] = tested on: cleavage of the amyloid precursor protein (APP); test: OGD in primary cortical neurons, APP cleavage (immunoblot); format: cell-based
Procedure: A. AEP activity, measured in primary neuronal cultures with 5 μM Cbz-Ala-Ala-Asn-AMC (x-axis denotes neurons were treated with 0.1 μM or 1.0 μM specified compound). B. Caspase activity, measured in primary neuronal cultures with 5 μM Ac-Asp-Glu-Val-Asp-AMC. C. Cathepsin activity, measured in primary neuronal cultures with 5 μM D-Val-Leu-Lys-AMC. D. Inhibition of APP cleavage. Lysates of primary cortical neurons pre-incubated with compounds for 30 min, underwent OGD for 4 hrs, were reperfused for 18 hrs (normoxia neurons remained at normoxic conditions). E. APP can be cleaved in a dose-dependent manner. Lysates of primary cortical neurons pre-incubated with compounds for 30 min, underwent OGD for 4 hrs, were reperfused for 18 hrs (normoxia neurons remained at normoxic conditions).
Depriving cells of oxygen and glucose is a cellular model that is employed to trigger acidosis in cultured cells. The efficacy of the compounds in a cellular model of oxygen-glucose deprivation (OGD) was determined in an effort to mimic the effects of stroke in primary cultured neurons. As a result of depriving neurons of oxygen and glucose-containing medium, AEP activity was doubled (FIG. 7A, ‘DMSO-Norm’ compared to ‘DMSO-OGD’), while Caspase-3 and Cathepsin activities remained relatively unchanged. […] Cleavage of APP is observed in response to only DMSO treatment (FIG. 7D, lane 2), and it appears that upon the treatment of 1 μM of compounds 10, 11, and 12, and just 0.1 μM of compounds 31, 38 and 64, the cleavage was blocked, presumably due to AEP inhibition.
Compounds were pre-incubated with primary culture neurons, DIV13, for 30 min. The medium was exchanged for glucose-free DMEM and neurons were de-gased and incubated at 37° C., 95% N2/5% CO2 for 4 hrs with compounds. The medium was exchanged for DMEM and supplemented with compounds, then neurons were reperfused for 18 hrs under normoxic conditions. The neuronal lysates were prepared for AEP, Caspase-3 and Cathepsin assays. Moreover, immunoblotting analysis was conducted with the neuronal lysates using anti-APP, anti-AEP antibodies.

[3] = target: T2, AEP (Homo sapiens, UniProt Q99538); test: Time course inactivation assays (progress curves); format: biochemical
T2 construct: tested with purified active AEP, IC50 values for the top 8 candidates were found; purchased Sino Biological
T2 sequence (Q99538 18-323 limits assumed): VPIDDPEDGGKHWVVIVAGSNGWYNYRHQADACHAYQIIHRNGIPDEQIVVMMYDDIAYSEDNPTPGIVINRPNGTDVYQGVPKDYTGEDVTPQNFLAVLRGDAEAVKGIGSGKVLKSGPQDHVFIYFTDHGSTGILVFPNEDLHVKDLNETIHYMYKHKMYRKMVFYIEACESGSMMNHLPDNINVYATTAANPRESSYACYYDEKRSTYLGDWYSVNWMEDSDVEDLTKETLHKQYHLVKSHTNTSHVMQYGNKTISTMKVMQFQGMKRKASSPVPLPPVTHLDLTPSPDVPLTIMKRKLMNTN
Procedure: KI values for each inhibitor were determined by global fits to the competitive inhibition equation. C. Time course inactivation assays were used to generate progress curves, depicting product formation as a function of time. […] E. Time course inactivation assays were used to generate progress curves, depicting product formation as a function of time. Pseudo first-order rate constants were obtained at each concentration of compound BB1. F. Re-plot of the pseudo first-order rate constants, kobs, vs. the concentration of compound BB1.
To continue to assess the mechanism utilized by the compounds to inhibit AEP, the inhibition kinetics were determined for compound, 11, as well as compound BB1, in an attempt to confirm that the thiol moiety is competitively inhibiting the enzyme. […] The resulting Michaelis-Menten plots for each compound seem be indicative of competitive inhibition. […] Since BB1 contains a thiol group, it can form a disulfide bond with the active-site cysteine of AEP. […] Additionally, plotting the pseudo-first-order rate constants of inhibition, kobs, which were determined from the progress curves, yielded a hyperbolic curve, consistent with a two-step mechanism of inactivation (FIG. 6D). […] However, the kobs versus inhibitor concentration plot yielded a straight line, maybe due to the rapid disulfide formation reaction (FIG. 6F).
Progress curves were generated by incubating 5 μM Z-AAN-AMC and the specified concentration of inhibitor in assay buffer at 37° C. for 10 min. The reaction was initiated by the addition of 50 nM AEP and quenched after 10 min. The concentration of the product was determined from an AMC standard curve and the data was fit by nonlinear regression. Since the curves were nonlinear, they were fit to equation 5, using the GraFit version 5.0.11 software package, […]
[Product]=νi(1−e^−kobs.app*t)/kobs.app (eq 5), where νi is the initial velocity, kobs.app is the apparent pseudo-first order rate constant for inactivation, and t is time. […]

[4] = Liver microsomal stability, human; conditions: human liver microsomes; for Mean Remaining Parent (with NADPH): 30 min of incubation

| second-order rate constant of inhibition, kinact/KI ([3]; slope of kobs versus inhibitor concentration) [M⁻¹ s⁻¹] | SMILES | CYP inhibition, CYP1A2 ([1]; test concentration 3 μM) [%] | CYP inhibition, CYP1A2 ([1]; test concentration 10 μM) [%] | cleavage of APP after OGD ([2]; 1 μM compound) | type of inactivation from progress curves [3] | Mean Remaining Parent (NADPH-free) [4] [%] | Mean Remaining Parent (with NADPH) [4] [%] | cleavage of APP after OGD ([2]; 0.1 μM compound) |
| --- | --- | --- | --- | --- | --- | --- | --- | --- |
|  | Nc1ccc(N2CCOCC2)c2nonc12 [Compound 11] | 13.1 | 37.0 | blocked | irreversibly inactivates AEP | 93 | 76 |  |
|  | Cn1c(=O)[nH]c(=O)c2c1nc(S)n2CC(O)COc1ccc(Cl)cc1 (stereo not shown) [Compound 38] | −7.6 | 10.5 |  |  | 107 | 88 | blocked |
| 55000 | Sc1nnc(Nc2ccccc2)s1 [Compound BB1] |  |  |  | slow-binding inhibitor |  |  |  |
